# Test system: healthy subjects
# Assay: Symptom Checklist-90 item (SCL-90)
# Format: in vivo, human
# Text: In some embodiments, the Symptom Checklist-90 item (SCL-90) questionnaire is used to evaluate the safety and/or efficacy of psilocybin. The SCL-90 is a relatively brief self-report psychometric instrument designed to evaluate a broad range of psychological problems and symptoms of psychopathology. In some embodiments, the SCL-90 is used to assess somatization, obsessive-compulsive behaviors, interpersonal sensitivity, depression, anxiety, hostility, phobic anxiety, paranoid ideation, and psychoticism of a subject treated according to the methods of the disclosure. The 90 items in the questionnaire are scored on a 5-point Likert scale, indicating the rate of occurrence of the symptom during the time reference. In some embodiments, after treating according to the methods of the disclosure, a subject's SCL-90 score decreases by about 5% to about 100%, for example, by about 5%, about 10%, about 15%, about 20%, about 25%, about 30%, about 35%, about 40%, about 45%, about 50%, about 55%, about 60%, about 65%, about 70%, about 75%, about 80%, about 85%, about 90%, about 95%, or about 100%.
# The Neuroticism Extraversion Openness-Five Factor Inventory (NEO-FFI) and Symptom Checklist-90 Item (SCL-90) were administered. Details of the MMRM applied to the change from baseline scores for the NEO-FFI and SCL-90 are provided below in Table 28.
compound,measurement,setting,value
CN(C)CCc1c[nH]c2cccc(OP(=O)(O)O)c12 [psilocybin],"SCL-90 - somatisation change from baseline, difference Psilocybin 10 mg - Placebo",Day 7,0.1
same,"SCL-90 - somatisation change from baseline, difference Psilocybin 25 mg - Placebo",Day 7,0.1
same,"SCL-90 - somatisation change from baseline, difference Psilocybin (25 mg-10 mg)",Day 7,−0.0
same,"SCL-90 anger hostility change from baseline, difference Psilocybin 10 mg - Placebo",Day 7,−0.0
same,"SCL-90 anger hostility change from baseline, difference Psilocybin 25 mg - Placebo",Day 7,−0.0
same,"SCL-90 anger hostility change from baseline, difference Psilocybin (25 mg-10 mg)",Day 7,0.0
same,"SCL-90 anxiety change from baseline, difference Psilocybin 10 mg - Placebo",Day 7,−0.0
same,"SCL-90 anxiety change from baseline, difference Psilocybin 25 mg - Placebo",Day 7,0.0
same,"SCL-90 anxiety change from baseline, difference Psilocybin (25 mg-10 mg)",Day 7,0.0
same,"SCL-90 depression change from baseline, difference Psilocybin 10 mg - Placebo",Day 7,0.0
same,"SCL-90 depression change from baseline, difference Psilocybin 25 mg - Placebo",Day 7,0.0
same,"SCL-90 depression change from baseline, difference Psilocybin (25 mg-10 mg)",Day 7,−0.0
same,"SCL-90 interpersonal sensitivity change from baseline, difference Psilocybin 10 mg - Placebo",Day 7,−0.0
same,"SCL-90 interpersonal sensitivity change from baseline, difference Psilocybin 25 mg - Placebo",Day 7,0.0
same,"SCL-90 interpersonal sensitivity change from baseline, difference Psilocybin (25 mg-10 mg)",Day 7,0.1
same,"SCL-90 obsessive compulsive change from baseline, difference Psilocybin 10 mg - Placebo",Day 7,0.1
same,"SCL-90 obsessive compulsive change from baseline, difference Psilocybin 25 mg - Placebo",Day 7,0.1
same,"SCL-90 obsessive compulsive change from baseline, difference Psilocybin (25 mg-10 mg)",Day 7,−0.0
same,"SCL-90 paranoid ideation change from baseline, difference Psilocybin 10 mg - Placebo",Day 7,0.0
same,"SCL-90 paranoid ideation change from baseline, difference Psilocybin 25 mg - Placebo",Day 7,0.1
same,"SCL-90 paranoid ideation change from baseline, difference Psilocybin (25 mg-10 mg)",Day 7,0.1
same,"SCL-90 phobic anxiety change from baseline, difference Psilocybin 10 mg - Placebo",Day 7,−0.0
same,"SCL-90 phobic anxiety change from baseline, difference Psilocybin 25 mg - Placebo",Day 7,0.0
same,"SCL-90 phobic anxiety change from baseline, difference Psilocybin (25 mg-10 mg)",Day 7,0.0
same,"SCL-90 psychoticism change from baseline, difference Psilocybin 10 mg - Placebo",Day 7,0.0
same,"SCL-90 psychoticism change from baseline, difference Psilocybin 25 mg - Placebo",Day 7,0.0
same,"SCL-90 psychoticism change from baseline, difference Psilocybin (25 mg-10 mg)",Day 7,0.0
same,"SCL-90 - somatisation change from baseline, difference Psilocybin 10 mg - Placebo",Day 84,0.0
same,"SCL-90 - somatisation change from baseline, difference Psilocybin 25 mg - Placebo",Day 84,0.0
same,"SCL-90 - somatisation change from baseline, difference Psilocybin (25 mg-10 mg)",Day 84,0.0
same,"SCL-90 anger hostility change from baseline, difference Psilocybin 10 mg - Placebo",Day 84,−0.0
same,"SCL-90 anger hostility change from baseline, difference Psilocybin 25 mg - Placebo",Day 84,−0.0
same,"SCL-90 anger hostility change from baseline, difference Psilocybin (25 mg-10 mg)",Day 84,−0.0
same,"SCL-90 anxiety change from baseline, difference Psilocybin 10 mg - Placebo",Day 84,−0.1
same,"SCL-90 anxiety change from baseline, difference Psilocybin 25 mg - Placebo",Day 84,−0.0
same,"SCL-90 anxiety change from baseline, difference Psilocybin (25 mg-10 mg)",Day 84,0.0
same,"SCL-90 depression change from baseline, difference Psilocybin 10 mg - Placebo",Day 84,0.0
same,"SCL-90 depression change from baseline, difference Psilocybin 25 mg - Placebo",Day 84,0.0
same,"SCL-90 depression change from baseline, difference Psilocybin (25 mg-10 mg)",Day 84,0.0
same,"SCL-90 interpersonal sensitivity change from baseline, difference Psilocybin 10 mg - Placebo",Day 84,−0.1
same,"SCL-90 interpersonal sensitivity change from baseline, difference Psilocybin 25 mg - Placebo",Day 84,−0.0
same,"SCL-90 interpersonal sensitivity change from baseline, difference Psilocybin (25 mg-10 mg)",Day 84,0.0
same,"SCL-90 obsessive compulsive change from baseline, difference Psilocybin 10 mg - Placebo",Day 84,0.1
same,"SCL-90 obsessive compulsive change from baseline, difference Psilocybin 25 mg - Placebo",Day 84,0.0
same,"SCL-90 obsessive compulsive change from baseline, difference Psilocybin (25 mg-10 mg)",Day 84,−0.1
same,"SCL-90 paranoid ideation change from baseline, difference Psilocybin 10 mg - Placebo",Day 84,0.1
same,"SCL-90 paranoid ideation change from baseline, difference Psilocybin 25 mg - Placebo",Day 84,0.1
same,"SCL-90 paranoid ideation change from baseline, difference Psilocybin (25 mg-10 mg)",Day 84,0.0
same,"SCL-90 phobic anxiety change from baseline, difference Psilocybin 10 mg - Placebo",Day 84,−0.0
same,"SCL-90 phobic anxiety change from baseline, difference Psilocybin 25 mg - Placebo",Day 84,0.0
same,"SCL-90 phobic anxiety change from baseline, difference Psilocybin (25 mg-10 mg)",Day 84,0.0
same,"SCL-90 psychoticism change from baseline, difference Psilocybin 10 mg - Placebo",Day 84,−0.0
same,"SCL-90 psychoticism change from baseline, difference Psilocybin 25 mg - Placebo",Day 84,−0.0
same,"SCL-90 psychoticism change from baseline, difference Psilocybin (25 mg-10 mg)",Day 84,0.0

# Source: patent US11865126B2, “Method for treating anxiety disorders, headache disorders, and eating disorders with psilocybin” (priority 2019, dated 2024)
